Measurements reported in patent US10538520B2, “Benzamide and nicotinamide compounds and methods of using same” (OncoTartis Inc., priority 2013, dated 2020).
pIC50: −log10 of the molar value.

Key:
MV4-11 cells [1] = assay: Subcutaneous MV4-11 xenograft model of AML in SCID mice, tumor growth; format: in vivo; conditions: for maximum suppression of tumor growth (STG %): 6 days per week; for effect on tumor growth: SCID mice inoculated SC with MV4-11 cells (FIGS. 1 and 2)
Procedure: FIG. 1. Example of growth of tumors in MV4-11 xenograft model of AML in SCID mice treated with vehicle control and TT-03197 at 10 mg/kg and 40 mg/kg administered intraperitoneally. Mice were treated 6 days per week as indicated on the figure. Results are Mean±SE (n=14-16).
FIG. 2. Example of growth of tumors in MV4-11 xenograft model of AML in SCID mice treated with vehicle control and TT-03203 at 10 mg/kg and 25 mg/kg administered orally. Mice were treated 6 days per weeks as indicated on the figure. Results are Mean±SE (n=17-20)
(§1) Efficacy of compounds was tested in two types of xenograft models of leukemia: subcutaneous (SC) (development of tumors after SC inoculation of cells) and systemic and disseminated (development of tumors on different organs after intravenous inoculation of cells). MV4-11 cells (ATCC CRL-9591) of acute myelomonocytic leukemia (AML) were used.
The maximum suppression of tumor growth (calculated using formula: STG %=(volume control-volume treated)/volume control*100) was 28% for mice treated with 10 mg/kg of TT-03197 and 55% for mice treated with 40 mg/kg of […] (FIG. 1). For TT-03203 the maximum STG was 27% for mice treated PO with 10 mg/kg of TT-03203 and 46% for mice treated with 25 mg/kg of TT-03203 (FIG. 2).

MV4-11 = assay: Cytotoxicity towards MV4-11 cell line; format: cell-based; conditions: Homo sapiens
Procedure: (§2) In various embodiments, the compounds of the disclosure are those in which show IC50 values in cytotoxicity experiments towards cells lines MV4-11 and U937 of >20 μM, 10-20 μM, 5-10 μM, 1-5 μM, or <1 μM.
(§3) The IC50 is divided into 5 categories: A<1 μM, B 1-5 μM, C 5-10 μM, D 10-20 μM, and E>20 μM.

U-937 = assay: Cytotoxicity towards U-937 cell line; format: cell-based; conditions: Homo sapiens
Procedure: as §2, §3

MV4-11 cells [2] = assay: Systemic (disseminated) MV4-11 model of AML in SCID mice, survival; format: in vivo; conditions: 6 days per week, days 4-58, IV MV4-11 (FIG. 3)
Procedure: FIG. 3. Example of survival of SCID mice inoculated via IV route with MV4-11 cells and treated via oral gavage with vehicle control, TT-01901 at 100 mg/kg and TT-03586 at 50 mg/kg 6 days per week on days 4-58. Mice were sacrificed according to IACUC regulations after losing more than 20% of body weight or becoming moribund and paralyzed.
as §1
In this model leukemia cells either from patient of from cell lines are administered intravenously into mice and leukemia cells are engrafted into blood and blood-forming organs (bone marrow, thymus, spleen).
In systemic model of AML SCID mice were irradiated with 3 Gy and inoculated intravenously with MV4-11 cells 24 h after irradiation. Mice were treated with vehicle control, TT-01901 and TT-03586 during days 4-58 (FIG. 3). 30 days after cells implantation mice treated with vehicle were gradually becoming sick, scruffy and were losing weight. […] The ratio of survival of treated mice versus survival of control mice in percent (T/C) was calculated using formula: T/C %=average survival time for treated mice/average survival time for control mice*100. Increase in the survival (IS) was calculated using formula: IS=(average survival time of treated mice−average survival time of control mice)/average survival time of control mice*100. […] The corresponding increase in survival was 35% and 48%.

SMILES	maximum suppression of tumor growth (STG %) (MV4-11 cells [1]; 10 mg/kg, intraperitoneally, SC MV4-11 xenograft (FIG. 1)) [%]	effect on tumor growth (MV4-11 cells [1])	pIC50 (MV4-11)	pIC50 (U-937)	maximum suppression of tumor growth (STG %) (MV4-11 cells [1]; 10 mg/kg PO, SC MV4-11 xenograft (FIG. 2)) [%]	maximum suppression of tumor growth (STG %) (MV4-11 cells [1]; 25 mg/kg PO, SC MV4-11 xenograft (FIG. 2)) [%]	maximum suppression of tumor growth (STG %) (MV4-11 cells [1]; 40 mg/kg, intraperitoneally, SC MV4-11 xenograft (FIG. 1)) [%]	increase in survival (IS) (MV4-11 cells [2]; 50 mg/kg oral gavage) [%]	survival of treated mice versus control mice (T/C %) (MV4-11 cells [2]; 50 mg/kg oral gavage) [%]	increase in survival (IS) (MV4-11 cells [2]; 100 mg/kg oral gavage) [%]	survival of treated mice versus control mice (T/C %) (MV4-11 cells [2]; 100 mg/kg oral gavage) [%]
O=C(NCCCc1cn[nH]c1)c1ccc(-n2cccn2)c(C#Cc2ccc(F)cc2)c1 [TT-03197]	28	dose-dependent reduction of tumor growth	> 6.00	> 6.00	–	–	–	–	–	–	–
O=C(NCCCc1cn[nH]c1)c1ccc(-n2cccn2)c(C#Cc2ccc(Cl)cc2)c1 [TT-03203]	–	dose-dependent reduction of tumor growth	> 6.00	> 6.00	27	46	55	–	–	–	–
O=C(NCCCc1cn[nH]c1)c1ccc(N2CCOCC2)c(C#Cc2ccc(F)cc2)c1 [TT-03586]	–	–	> 6.00	> 6.00	–	–	–	48	148	–	–
O=C(NCCCn1ccnc1)c1ccc(-n2cccn2)c(C#Cc2ccccc2)c1 [TT-01901]	–	–	> 6.00	> 6.00	–	–	–	–	–	35	135
